According to US20230130144A1, “PHARMACEUTICAL COMBINATION AND USE THEREOF” (NATURAL MEDICINE INSTITUTE OF ZHEJIANG YANGSHENGTANG CO., …, priority 2020, published 2023):
Values joined by “and” are separate entries in the source; they are usually repeats but may differ in a detail not shown here. Equal values may be shown once. Read-outs that look alike come from different tables or passages of the source.

Experiments:
Assay type in all cases: cell-based
[1] = tested on: 143B human osteosarcoma cells; test: Cell count (Trypan Blue) viability, drug combination administration, 143B cells; conditions: 24 h; for viability at 20 µM / viability at 50 µM / viability at 10 µM: Homo sapiens, read-out: cell viability
Description: (§1) 10 μL was taken for counting.
(§2) (5) After 24 h of dosing, the medium was discarded. […] The cells were digested for 5 min.

[2] = tested on: HOS human osteosarcoma cells; test: Cell count (Trypan Blue) viability, drug combination administration, HOS cells; conditions: 24 h, read-out: cell viability
Description: HEK293 cells, HOS human osteosarcoma cells and 143B human osteosarcoma cells were subcultured in an incubator at 37° C., 5% CO2 using a RPMI-1640 medium containing 10% fetal bovine serum (FBS).
as §1
(3) After counting, the cells were diluted to 1×10^5 cells/ml.
as §2

DB lymphoma cells = test: Cell viability of lymphoma cells by the method of Example 1; conditions: Homo sapiens
Description: (§3) (6) After digestion, equivalent amounts of PBS were added into each well and mixed uniformly. Then, 10 μL/well of Trypan Blue solution was added and mixed uniformly. 10 μL of the well-mixed solution was taken and counted. In accordance with “Cell viability=Cell Count of Test Group/Cell Count of Control Group×100%”, the cell viability of various groups was calculated.
For example, as for the DB lymphoma cells, the control group involves adding the solvent DMSO alone, the Vc group involves adding 2 mM of ascorbic acid, the low-dose Nic group involves adding 1 μM of Niclosamide, the low-dose Nic+Vc group involves adding 1 μM of Niclosamide and 2 mM of ascorbic acid, the high-dose Nic group involves adding 2 μM of Niclosamide, and the high-dose Nic+Vc group involves adding 2 μM of Niclosamide and 2 mM of ascorbic acid.

MC38 colon cancer cells = test: Cell viability of colon cancer cells by the method of Example 1; conditions: Mus musculus
Description: as §3
For example, as for MC38 colon cancer cells, the control group involves adding the solvent DMSO alone, the Nic group involves adding 1 μM of Niclosamide, the Vc group involves adding 0.5 mM of ascorbic acid, the Nic+Vc group involves adding 1 μM of Niclosamide and 0.5 mM of ascorbic acid.

In the case of `Cc1cc(-c2ncc(CC(=O)Nc3ccc(-c4cnccn4)cn3)cc2C)ccn1` [LGK974], the viability at 20 µM ([1]; 143B) was 64% and the viability at 20 µM ([2]; HOS) was 67%.
Work on `COc1ccc2cc3[n+](cc2c1OC)CCc1cc2c(cc1-3)OCO2` [berberine] yielded a viability at 20 µM ([1]; 143B) of 94% and a viability at 20 µM ([2]; HOS) of 82%.
For `O=C1O[C@H]([C@@H](O)CO)C(O)=C1O` [ascorbic acid], the viability at 2000 µM (DB lymphoma cells; 2 mM ascorbic acid alone) was 76% and the viability at 500 µM (MC38 colon cancer cells; MC-38, 0.5 mM ascorbic acid alone) was 105%.
With `O=C(Nc1ccc([N+](=O)[O-])cc1Cl)c1cc(Cl)ccc1O` [Niclosamide] the viability at 50 µM ([1]; 143B) was 59%, the viability at 50 µM ([2]; HOS) was 56% and the viability at 1 µM (DB lymphoma cells; 1 μM Niclosamide alone (low-dose)) was 57%. For the same compound, the viability at 2 µM (DB lymphoma cells; 2 μM Niclosamide alone (high-dose)) was 52% and the viability at 1 µM (MC38 colon cancer cells; MC-38, 1 μM Niclosamide alone) was 82%.
With `O=C1O[C@H]([C@@H](O)CO)C([O-])=C1O.[Na+]` [sodium ascorbate] the cell viability ([1]; 143B cells, 0.5 mM sodium ascorbate alone) was 106% and 90% and 83% and 77% and 80% and 81% and 82%.
With `Cn1c(=O)c2c(ncn2CC(=O)Nc2ccc(-c3ccccc3)nn2)n(C)c1=O` [ETC-159] the viability at 20 µM ([1]; 143B) was 60% and the viability at 20 µM ([2]; HOS) was 67%.
`O=C(O)CC[C@H]1CC[C@@](c2cc(F)ccc2F)(S(=O)(=O)c2ccc(Cl)cc2)CC1` [MK0752] gave a viability at 20 µM ([1]; 143B) of 62% and a viability at 20 µM ([2]; HOS) of 67%.
Work on `CC1=C(CC(=O)O)c2cc(F)ccc2/C1=C\c1ccc([S+](C)[O-])cc1` (centres unmarked) [Sulindac] yielded a viability at 50 µM ([2]; HOS) of 92%.
`CS(=O)(=O)c1ccc(C(=O)Nc2ccc(Cl)c(-c3ccccn3)c2)c(Cl)c1` [Vismodegib] was tested, and the viability at 50 µM ([1]; 143B cells, single drug 50 μM) was 60% and the viability at 50 µM ([2]; HOS cells, single drug 50 μM) was 53%.
Compound `CC(C)(C(=O)NCC(F)(F)C(F)(F)F)C(=O)N[C@@H]1C(=O)Nc2ccccc2-c2ccccc21` [RO4929097] has a viability at 10 µM ([1]; 143B) of 58% and a viability at 10 µM ([2]; HOS) of 56%.
In the case of `Cc1c(C(=O)Nc2ccc(N3C[C@@H](C)O[C@@H](C)C3)nc2)cccc1-c1ccc(OC(F)(F)F)cc1` [Sonidegib], the viability at 10 µM ([1]; 143B) was 74% and the viability at 10 µM ([2]; HOS) was 89%.
